From patent US20180016593A1, “HERBICIDE-RESISTANT SUNFLOWER PLANTS, POLYNUCLEOTIDES ENCODING HERBICIDE-RESISTANT ACETOHYDROXYACID SYNTHASE LARGE SUBUNIT PROTEINS, AND METHODS OF USE” (priority 2005, published 2018)
Several values for one entry are separate records, joined by “and”; a condition that tells them apart may be missing. Equal values may be shown once. Read-outs that look alike come from different tables or passages of the source.

System: sunflower lines carrying the A122T mutation
Assay type: in vivo, Helianthus annuus
Details: 14 DAT; for biomass accumulation, Dif A122T-A205V / plant height, Dif A122T-A205V / root dry weight, Dif with A122T-A205V: A122T mean minus A205V mean; for biomass accumulation, Dif with Control / plant height, Dif with Control / root dry weight, Dif with Control: A122T mean; for Phytotoxicity Index, Dif A205V-A122T: A205V mean minus A122T mean; for biomass accumulation, Mean / plant height, Mean / root dry weight, Mean: six A122T genotypes
Experimental: A greenhouse study was conducted to quantify and contrast the imazapir sensivity of the mutants A122T and A205V in different genetic backgrounds at the whole plant level in sunflower. Seeds of the different sunflower lines that were used in this study were obtained under field conditions.
Seeds were sown in Petri dishes and, after germination, plantlets were transplanted to pots of 10 cm of diameter in a potting media consisting of equal parts of vermiculite, soil and sand. Plants were grown in a greenhouse under natural light conditions supplemented with 400 W sodium halide lamps to provide a 16 hrs daylength. Day/night temperatures were 25 and 20° C., respectively. At the V2 stage 10 plants of each genotype were randomly assigned to each treatment consisting of […] imazapir doses (0, 40, 80, 160, 240, 320, 400 and 480 g ai/ha), and a zero-time biomass determination. Experiment was arranged as a randomized block design with a full factorial (sunflower line×treatment) arrangement of treatments and 10 replications.
On the day of herbicide application ten plants of each genotype were cut at the cotyledonal node and dried at 60° C. for 48 hrs zero-time for dried weight determination.
Height was determined as the distance between the cotyledonal node and the apex of each plant. For root biomass determination, each plant was taken from the pot and the potting media was washed out from the roots. Above ground biomass data from each line were converted to biomass accumulation after application by subtracting the appropriate average zero-time biomass from each sample. Dry biomass data were converted to percentages of the untreated control plants within each line to allow direct comparisons between groups. […]

CC(C)C1(C)N=C(c2ncccc2C(=O)O)NC1=O (stereo not drawn) [imazapyr]
biomass accumulation, Dif A122T-A205V (0.5x (40 g ai/ha)): 4.3 % of untreated plots
plant height, Dif A122T-A205V (0.5x (40 g ai/ha)): 4.9 % of untreated plots
root dry weight, Dif with A122T-A205V (0.5x (40 g ai/ha)): 12.7 % of untreated plots
biomass accumulation, Dif A122T-A205V (1x (80 g ai/ha)): 14.5 % of untreated plots
plant height, Dif A122T-A205V (1x (80 g ai/ha)): 9.4 % of untreated plots
root dry weight, Dif with A122T-A205V (1x (80 g ai/ha)): 26.7 % of untreated plots
biomass accumulation, Dif A122T-A205V (2x (160 g ai/ha)): 33.2 % of untreated plots
plant height, Dif A122T-A205V (2x (160 g ai/ha)): 28.0 % of untreated plots
root dry weight, Dif with A122T-A205V (2x (160 g ai/ha)): 43.6 % of untreated plots
biomass accumulation, Dif A122T-A205V (3x (240 g ai/ha)): 45.3 % of untreated plots
plant height, Dif A122T-A205V (3x (240 g ai/ha)): 45.3 % of untreated plots
root dry weight, Dif with A122T-A205V (3x (240 g ai/ha)): 50.2 % of untreated plots
biomass accumulation, Dif A122T-A205V (4x (320 g ai/ha)): 52.4 % of untreated plots
plant height, Dif A122T-A205V (4x (320 g ai/ha)): 59.9 % of untreated plots
root dry weight, Dif with A122T-A205V (4x (320 g ai/ha)): 50.3 % of untreated plots
biomass accumulation, Dif A122T-A205V (5x (400 g ai/ha)): 46.9 % of untreated plots
plant height, Dif A122T-A205V (5x (400 g ai/ha)): 57.8 % of untreated plots
root dry weight, Dif with A122T-A205V (5x (400 g ai/ha)): 47.9 % of untreated plots
biomass accumulation, Dif A122T-A205V (6x (480 g ai/ha)): 44.6 % of untreated plots
plant height, Dif A122T-A205V (6x (480 g ai/ha)): 54.0 % of untreated plots
root dry weight, Dif with A122T-A205V (6x (480 g ai/ha)): 37.3 % of untreated plots
biomass accumulation, Dif with Control (0.5x (40 g ai/ha)): 1.1 % of untreated plots
plant height, Dif with Control (0.5x (40 g ai/ha)): 0.6 % of untreated plots
root dry weight, Dif with Control (0.5x (40 g ai/ha)): 0.1 % of untreated plots
biomass accumulation, Dif with Control (1x (80 g ai/ha)): 3.2 % of untreated plots
plant height, Dif with Control (1x (80 g ai/ha)): 1.4 % of untreated plots
root dry weight, Dif with Control (1x (80 g ai/ha)): 2.5 % of untreated plots
biomass accumulation, Dif with Control (2x (160 g ai/ha)): 5.1 % of untreated plots
plant height, Dif with Control (2x (160 g ai/ha)): 2.7 % of untreated plots
root dry weight, Dif with Control (2x (160 g ai/ha)): 5.9 % of untreated plots
biomass accumulation, Dif with Control (3x (240 g ai/ha)): 7.2 % of untreated plots
plant height, Dif with Control (3x (240 g ai/ha)): 4.4 % of untreated plots
root dry weight, Dif with Control (3x (240 g ai/ha)): 10.6 % of untreated plots
biomass accumulation, Dif with Control (4x (320 g ai/ha)): 12.2 % of untreated plots
plant height, Dif with Control (4x (320 g ai/ha)): 6.3 % of untreated plots
root dry weight, Dif with Control (4x (320 g ai/ha)): 18.6 % of untreated plots
biomass accumulation, Dif with Control (5x (400 g ai/ha)): 20.7 % of untreated plots
plant height, Dif with Control (5x (400 g ai/ha)): 10.2 % of untreated plots
root dry weight, Dif with Control (5x (400 g ai/ha)): 21.3 % of untreated plots
plant height, Dif with Control (6x (480 g ai/ha)): 15.8 % of untreated plots
root dry weight, Dif with Control (6x (480 g ai/ha)): 38.3 % of untreated plots
biomass accumulation, Dif with Control (6x (480 g ai/ha), listed as imazapir): 25 % of untreated plots and 25.4 % of untreated plots
Phytotoxicity Index, Dif A205V-A122T (0.5x (40 g ai/ha)): −0.29
Phytotoxicity Index, Dif A205V-A122T (1x (80 g ai/ha)): −0.29
Phytotoxicity Index, Dif A205V-A122T (2x (160 g ai/ha)): 1.87
Phytotoxicity Index, Dif A205V-A122T (3x (240 g ai/ha)): 4.81
Phytotoxicity Index, Dif A205V-A122T (4x (320 g ai/ha)): 6.92
Phytotoxicity Index, Dif A205V-A122T (5x (400 g ai/ha)): 7.38
Phytotoxicity Index, Dif A205V-A122T (6x (480 g ai/ha)): 7.03
biomass accumulation, Mean (0.5x (40 g ai/ha)): 98.9 % of untreated plots
plant height, Mean (0.5x (40 g ai/ha)): 99.4 % of untreated plots
root dry weight, Mean (0.5x (40 g ai/ha)): 99.9 % of untreated plots
biomass accumulation, Mean (1x (80 g ai/ha)): 96.8 % of untreated plots
plant height, Mean (1x (80 g ai/ha)): 98.6 % of untreated plots
root dry weight, Mean (1x (80 g ai/ha)): 97.5 % of untreated plots
biomass accumulation, Mean (2x (160 g ai/ha)): 94.9 % of untreated plots
plant height, Mean (2x (160 g ai/ha)): 97.3 % of untreated plots
root dry weight, Mean (2x (160 g ai/ha)): 94.1 % of untreated plots
biomass accumulation, Mean (3x (240 g ai/ha)): 92.8 % of untreated plots
plant height, Mean (3x (240 g ai/ha)): 95.6 % of untreated plots
root dry weight, Mean (3x (240 g ai/ha)): 89.4 % of untreated plots
biomass accumulation, Mean (4x (320 g ai/ha)): 87.8 % of untreated plots
plant height, Mean (4x (320 g ai/ha)): 93.7 % of untreated plots
